For 1 compound, IC50 results are on record in patent US20190175560A1, “MEBENDAZOLE CANCER THERAPIES AND METHODS OF USE” (Shepherd Therapeutics, Inc., priority 2017, published 2019).

Assay [1] relates to IMR-32 neuroblastoma cell line. The assay is described as follows: MBZ cell viability IC50 (CellTiter Glo). Particulars: Homo sapiens, 72 hours. The class given is cell-based. Here is the method: (§1) The effect of mebendazole administration on cell lines derived from exemplary cancers was tested. One approach to determining the effectiveness of mebendazole in the treatment of cancer comprises in vitro testing. In this approach, cancer cell lines representative of the cancers of the disclosure are cultured in vitro according to standard techniques (see, for example, Human Cell Culture Protocols, Third Edition, […] R. D. Hughes, Editors, Humana Press, 2012), and increasing concentrations of mebendazole are administered to determine the IC50 value. As used herein, the term “IC50 value” refers to the concentration of a compound (for example mebendazole) wherein the response to that compound (such as inhibited cellular viability) is reduced by half. The IC50 is thus a measure of the effectiveness of a compound in inhibiting a biological process. […] Based on this biology, several rare cancer tumor cell lines including neuroblastoma, rhabdomyosarcoma and Ewing sarcoma were analyzed for sensitivity to MBZ treatment in vitro. […] In all cases, including those described below, the viable cells were determined using the CellTiter Glo® kit and an IC50 curve was generated using the PRISM software. […] The neuroblastoma cell lines IMR-32, CHP-212, and SK-N-AS were treated with ten serial dilutions of mebendazole for 72 hours.

Assay [2] has as its system SK-N-AS neuroblastoma cell line. The assay is described as follows: MBZ cell viability IC50 (CellTiter Glo). The class given is cell-based. Conditions: Homo sapiens, 72 hours. As for the experimental part:
as §1

Consider `COC(=O)Nc1nc2ccc(C(=O)c3ccccc3)cc2[nH]1` [MBZ, methyl N-(6-benzoyl-1H-benzimidazol-2-yl)carbamate], for which the IC50 was 50 nM in assay [1] and 680 nM in assay [2].
